For assay [1], the system named is iCell cardiomyocytes (human iPSC-derived cardiomyocytes). As to the kind of experiment: High-content imaging of cytotoxicity and mitochondrial integrity in iPSC-CMs. It counts as cell-based. The conditions noted are these: Homo sapiens, Cardiomyocyte, cardiomyocytes (cm). The method in brief: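 This assay measured cytotoxicity and mitochondrial integrity in iPSC cardiomyocytes held in 40μL maintenance medium. After compound exposure, a 2× staining solution with Hoechst 33342 (4μg/mL) and MitoTracker™ Orange (0.4μM) was applied for 15 min at 37°C. Cells were washed, fixed with 3.7% formaldehyde, imaged on DAPI and Cy3 channels, and scored in MetaXpress®.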

A further assay concerns HUVECs. Description: High-content imaging cytotoxicity in HUVECs, 24 h. The assay is classed as cell-based, human. The conditions noted are these: Homo sapiens, HUVEC, 24 h, HUVEC, 24 hr. In outline:
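Point-of-departure values come from four-parameter logistic fits of vehicle-normalized (0.5% DMSO) imaging readouts, cutoff one SD of vehicle means, 100μM where no concentration–response. Cells: HUVEC monolayers, passages 1–5, treated 24 h at 37°C, 5% CO2, then Hoechst 33342/MitoTracker Orange/calcein AM stained, imaged at 10×.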

Read-outs that look alike come from different tables or passages of the source.

Regarding `Oc1ccc(-c2ccc(Cl)cc2)cc1` [4'-OH-PCB 3], the minimal effective concentration worked out at 12.4 µM in assay [1] (1.5 h, cam, 90 min, read-out: POD cm.cam.90min); 16 µM in assay [1] (1.5 h, mii, 90 min, read-out: POD cm.mii.90min); 11.5 µM in assay [1] (1.5 h, mito, 90 min, read-out: POD cm.mito.90min); 11.3 µM in assay [1] (1.5 h, tc, 90 min, read-out: POD cm.tc.90min); 32.3 µM in assay [1] (24 h, cam, 24 hrs, read-out: POD cm.cam.24hrs); 15.4 µM in assay [1] (24 h, mii, 24 hrs, read-out: POD cm.mii.24hrs). Besides, the minimal effective concentration in assay [1] (24 h, mito, 24 hrs, read-out: POD cm.mito.24hrs) is 37.2 µM; in assay [1] (24 h, tc, 24 hrs, read-out: POD cm.tc.24hrs), 38.4 µM; in the assay with HUVECs (cyto, read-out: POD huvec.cyto.24hr), 7.01 µM; in the assay on HUVECs (mito, read-out: POD huvec.mito.24hr), 3.9 µM; with HUVECs (mitoint, read-out: POD huvec.mitoint.24hr), 11.2 µM; in the assay with HUVECs (nma, read-out: POD huvec.nma.24hr), 6.91 µM. For the same compound, the minimal effective concentration in the assay on HUVECs (tc, read-out: POD huvec.tc.24hr) was found to be 7.01 µM.

These data come from PMC7377239, “Cardiovascular Effects of Polychlorinated Biphenyls and Their Major Metabolites” (Environmental Health Perspectives, 2020).
